Among the data in patent US12391679B2, “Benzamide-substituted bicyclic imidazo- and pyrazolo-fused -pyridine, -pyrimide, and -pyridazine compounds for treatment of inflammatory diseases” (ONCO3R Therapeutics BV, priority 2019, dated 2025) are IC50 values, retold here.

Holding throughout (format): biochemical
Experiment [1] has as its target T1, SIK3 (Homo sapiens, UniProt Q9Y2K2).
T1 construct: purchased SignalChem S12-11G-100
In words: ADP-Glo kinase assay, SIK3. An outline of the steps: (§1)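 Each SIK isoform is incubated with substrate and ATP for 2 h at room temperature, after which residual ATP is depleted and the ADP formed is quantified by luminescence.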

Experiment [2] addresses T2, SIK2 (Homo sapiens, UniProt Q9H0K1).
T2 construct: purchased ThermoFisher Scientific PV4792
The experiment is described as follows: ADP-Glo kinase assay, SIK2. An outline of the steps:
as §1
For orientation: ADP-Glo first removes unused ATP, then detects ADP through luciferase.

The target of experiment [3] is T3, SIK1 (Homo sapiens, UniProt P57059).
T3 construct: purchased Carna Biosciences 02-131
The experiment is described as follows: 33P radioactive kinase assay, SIK1. As to the method:
(§2) The principle of the ^33P radioactive kinase assay consists in measuring the incorporated ^33P into the substrate AMARA peptide when phosphorylated by SIK1, SIK2 or SIK3 using [^33P]-g-ATP, which correlates with kinase activity.
(§3) The test compounds are prepared as a serial dilution of 10 point dose responses with 1/5 dilution steps in 100% DMSO starting from 2 mM highest concentration, diluted 1/20 in water and 5 μL is transferred to the assay plates (Greiner, Cat #651201).
(§4) 1% DMSO and 10 μM staurosporine final concentrations are used as negative and positive controls.
(§5) 11 μL of enzyme-substrate mixture is added on the assay plates. The reactions are started by adding 9 μL ATP mixture, consisting of non-labeled and ^33P-labeled ATP, on the assay plates.
(§6) The reactions are stopped by adding 25 μL phosphoric acid (150 mM) to the reactions.
(§7) The completely terminated kinase reactions are transferred using a harvester on pre-wetted UniFilter-96 plates (UniFilter-96 GF/B, PerkinElmer Inc., Cat #6005177).
(§8) After harvesting the kinase reactions, the filter plates are washed 6 times with phosphoric acid (75 mM). The back of the UniFilter-96 plates are sealed and 40 μL MicroScint-20 (PerkinElmer Inc., Cat #6013621) is added to each well. The top of the plates are sealed with TopSeal-A. Read-out is performed with a TopCount instrument (PerkinElmer Inc.).
(§9) Raw data are generated following the read-out performed on the TopCount, plotted to generate dose response curves to calculate percentage inhibition (PIN) and average IC50 for each SIK homologue which are reported in the table below.

In experiment [4] the target is T1, SIK3. The experiment is described as follows: 33P radioactive kinase assay, SIK3. The note with it: 33P radioactive assay; AMARA 7 μM; 15 μM ATP; 80 min; average IC50. As to the method:
as §2, §3, §4, §5, §6, §7, §8, §9

For experiment [5], the target named is T2, SIK2. In words: 33P radioactive kinase assay, SIK2. Also: AMARA 5 µM, 10 µM ATP. As to the method: as §2, §3, §4, §5, §6, §7, §8, §9
Experiment [6] has as its target T3, SIK1. The experiment is described as follows: ADP-Glo kinase assay, SIK1. An outline of the steps: as §1

Bounds are passed on as bounds.

T3 sequence (P57059 whole entry): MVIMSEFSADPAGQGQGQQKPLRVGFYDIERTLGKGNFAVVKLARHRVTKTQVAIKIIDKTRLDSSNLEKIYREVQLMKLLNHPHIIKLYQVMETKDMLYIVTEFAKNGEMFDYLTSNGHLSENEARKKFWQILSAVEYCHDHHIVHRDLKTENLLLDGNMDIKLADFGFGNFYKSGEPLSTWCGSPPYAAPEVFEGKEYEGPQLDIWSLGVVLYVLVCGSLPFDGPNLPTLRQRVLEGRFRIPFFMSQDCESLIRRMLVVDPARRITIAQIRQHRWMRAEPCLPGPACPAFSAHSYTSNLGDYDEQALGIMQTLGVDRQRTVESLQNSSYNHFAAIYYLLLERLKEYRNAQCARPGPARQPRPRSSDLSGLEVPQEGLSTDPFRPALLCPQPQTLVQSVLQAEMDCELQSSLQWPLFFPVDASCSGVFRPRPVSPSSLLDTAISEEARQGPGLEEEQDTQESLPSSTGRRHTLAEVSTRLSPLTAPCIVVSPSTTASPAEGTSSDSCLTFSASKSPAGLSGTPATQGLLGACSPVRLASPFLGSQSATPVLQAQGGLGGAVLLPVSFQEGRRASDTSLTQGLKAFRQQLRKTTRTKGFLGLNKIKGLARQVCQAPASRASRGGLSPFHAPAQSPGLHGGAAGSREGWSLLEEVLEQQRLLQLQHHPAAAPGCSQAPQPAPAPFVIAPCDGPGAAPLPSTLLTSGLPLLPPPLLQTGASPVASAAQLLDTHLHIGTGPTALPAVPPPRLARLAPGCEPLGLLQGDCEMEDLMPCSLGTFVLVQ
T1 sequence (Q9Y2K2 59-365 limits assumed): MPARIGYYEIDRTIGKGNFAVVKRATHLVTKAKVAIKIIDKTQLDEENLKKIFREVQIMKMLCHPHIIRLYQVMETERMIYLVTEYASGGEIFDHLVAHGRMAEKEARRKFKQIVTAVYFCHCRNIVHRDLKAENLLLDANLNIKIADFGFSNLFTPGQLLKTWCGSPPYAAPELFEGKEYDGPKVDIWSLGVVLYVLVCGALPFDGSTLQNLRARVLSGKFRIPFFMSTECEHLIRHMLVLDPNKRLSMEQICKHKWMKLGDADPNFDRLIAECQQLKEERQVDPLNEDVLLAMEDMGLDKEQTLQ
T2 sequence (Q9H0K1 whole entry): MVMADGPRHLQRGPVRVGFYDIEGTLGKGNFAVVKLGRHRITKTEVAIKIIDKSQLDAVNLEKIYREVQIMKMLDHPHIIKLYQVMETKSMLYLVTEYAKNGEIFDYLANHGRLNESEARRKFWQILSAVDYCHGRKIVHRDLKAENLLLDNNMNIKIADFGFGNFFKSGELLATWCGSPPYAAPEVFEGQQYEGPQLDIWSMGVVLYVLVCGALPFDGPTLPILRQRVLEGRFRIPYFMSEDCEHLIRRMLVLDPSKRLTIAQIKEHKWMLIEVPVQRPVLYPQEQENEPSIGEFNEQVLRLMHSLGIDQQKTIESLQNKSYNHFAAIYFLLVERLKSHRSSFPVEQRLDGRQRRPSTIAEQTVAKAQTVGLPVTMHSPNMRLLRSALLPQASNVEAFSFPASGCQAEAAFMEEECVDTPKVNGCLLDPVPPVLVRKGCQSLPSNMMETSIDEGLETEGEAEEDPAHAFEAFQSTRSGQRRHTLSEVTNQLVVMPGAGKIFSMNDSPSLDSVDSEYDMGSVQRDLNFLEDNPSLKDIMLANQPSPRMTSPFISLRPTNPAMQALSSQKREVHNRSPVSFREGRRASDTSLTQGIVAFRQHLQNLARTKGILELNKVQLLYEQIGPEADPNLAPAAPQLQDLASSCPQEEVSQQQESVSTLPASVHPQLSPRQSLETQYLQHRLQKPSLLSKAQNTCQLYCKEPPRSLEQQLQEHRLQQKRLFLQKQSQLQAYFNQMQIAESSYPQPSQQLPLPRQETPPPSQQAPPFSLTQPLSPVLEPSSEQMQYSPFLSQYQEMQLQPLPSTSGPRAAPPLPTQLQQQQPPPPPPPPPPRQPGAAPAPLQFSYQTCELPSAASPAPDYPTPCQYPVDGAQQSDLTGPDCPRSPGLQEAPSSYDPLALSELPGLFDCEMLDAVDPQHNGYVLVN

The IC50 is the concentration needed to halve the response being measured. Consider `COc1cc(-c2cnc3cc(C4CCCNC4)ccn23)cc(OC)c1C(=O)NCC(F)(F)F` (stereo not drawn) [Cpd 23, 2,6-dimethoxy-4-[7-(3-piperidyl)imidazo[1,2-a]pyridin-3-yl]-N-(2,2,2-trifluoroethyl)benzamide], for which the IC50 against SIK3 [1] is 10 to 100 nM; at SIK2 [2] it was 100 to 500 nM; at SIK1 [3], over 500 nM; at SIK3 [4], 10 to 100 nM; on SIK2 [5] it was 100 to 500 nM; against SIK1 [6], over 500 nM.
Regarding `COc1cc(-c2cnc3cc(C(C)(C)C#N)ccn23)cc(OC)c1C(=O)NCC#N` [Cpd 32, N-(cyanomethyl)-4-[7-(1-cyano-1-methyl-ethyl)imidazo[1,2-a]pyridin-3-yl]-2,6-dimethoxy-benzamide], the IC50 at SIK3 [1] was 10 to 100 nM; against SIK2 [2] it was over 500 nM; on SIK1 [3] it was over 500 nM; at SIK3 [4] it was 10 to 100 nM; at SIK2 [5], over 500 nM; against SIK1 [6], over 500 nM.
`COc1cc(-n2cnc3cc(C4CCCN(CC#N)C4)ccc32)cc(OC)c1C(=O)NCC(F)(F)F` (stereo not drawn) [Cpd 9, 4-[5-[1-(cyanomethyl)-3-piperidyl]benzimidazol-1-yl]-2,6-dimethoxy-N-(2,2,2-trifluoroethyl)benzamide]: the values for the IC50 on SIK1 [3], on SIK3 [4] and on SIK2 [5] were over 500 nM, 100 to 500 nM and over 500 nM, respectively.
`COc1cc(-n2cnc3cc(C(C)(C)C#N)ccc32)cc(OC)c1C(=O)NC1CC1` [Cpd 11, 4-[5-(1-cyano-1-methyl-ethyl)benzimidazol-1-yl]-N-cyclopropyl-2,6-dimethoxy-benzamide]: the IC50 against SIK3 [1] is 100 to 500 nM; on SIK2 [2], over 500 nM; at SIK1 [3] it was over 500 nM; on SIK3 [4] it was over 500 nM; on SIK2 [5], over 500 nM; on SIK1 [6], over 500 nM.
As to `COc1cc(-n2cnc3cc(C4(C#N)CCC4)ccc32)cc(OC)c1C(=O)NC1CC1` [Cpd 14, 4-[5-(1-cyanocyclobutyl)benzimidazol-1-yl]-N-cyclopropyl-2,6-dimethoxy-benzamide], the IC50 on SIK1 [3], on SIK3 [4] and at SIK2 [5] was over 500 nM throughout.
For `COc1cc(-n2cnc3cc(C4CCOCC4)ccc32)cc(OC)c1C(=O)NCC(F)(F)F` [Cpd 5, 2,6-dimethoxy-4-(5-tetrahydropyran-4-ylbenzimidazol-1-yl)-N-(2,2,2-trifluoroethyl)benzamide], the IC50 on SIK1 [3] is over 500 nM; at SIK3 [4], 100 to 500 nM; at SIK2 [5] it was over 500 nM.
As for `COc1cc(-n2cnc3cc(C(C)(C)C#N)ccc32)cc(OC(F)F)c1C(=O)NC1CC1` [Cpd 12, 4-[5-(1-cyano-1-methyl-ethyl)benzimidazol-1-yl]-N-cyclopropyl-2-(difluoromethoxy)-6-methoxy-benzamide], the IC50 was over 500 nM on SIK1 [3], 100 to 500 nM at SIK3 [4] and over 500 nM on SIK2 [5].
In the case of `COc1cc(-c2cnc3cc(C4CCCN(C(=O)OC(C)(C)C)C4)ccn23)cc(OC)c1C(=O)NCC(F)(F)F` (stereo not drawn) [Cpd 21, tert-butyl 3-[3-[3,5-dimethoxy-4-(2,2,2-trifluoroethylcarbamoyl)phenyl]imidazo[1,2-a]pyridin-7-yl]piperidine-1-carboxylate], the figures for the IC50 on SIK1 [3], at SIK3 [4] and at SIK2 [5] were over 500 nM, 10 to 100 nM and 100 to 500 nM, respectively.
With `COc1cc(-n2cnc3cc(C4CCCN(C)C4)ccc32)cc(OC)c1C(=O)NCC(F)(F)F` (stereo not drawn) [Cpd 6, 2,6-dimethoxy-4-[5-(1-methyl-3-piperidyl)benzimidazol-1-yl]-N-(2,2,2-trifluoroethyl)benzamide], the IC50 on SIK1 [3] is over 500 nM; at SIK3 [4], 100 to 500 nM; at SIK2 [5] it was over 500 nM.
For `COc1cc(-c2cnc3cc(C(C)(C)C#N)ccn23)cc(OC)c1C(=O)N1CC(F)(F)C1` [Cpd 18, 2-[3-[4-(3,3-difluoroazetidine-1-carbonyl)-3,5-dimethoxy-phenyl]imidazo[1,2-a]pyridin-7-yl]-2-methyl-propanenitrile], the IC50 at SIK3 [1] was 10 to 100 nM; at SIK2 [2], over 500 nM; at SIK1 [3] it was over 500 nM; on SIK3 [4] it was 10 to 100 nM; on SIK2 [5], over 500 nM; on SIK1 [6] it was over 500 nM.
`CCNC(=O)c1c(OC)cc(-c2cnc3cc(C(C)(C)C(N)=O)ccn23)cc1OC` [Cpd 31, 4-[7-(2-amino-1,1-dimethyl-2-oxo-ethyl)imidazo[1,2-a]pyridin-3-yl]-N-ethyl-2,6-dimethoxy-benzamide]: the values for the IC50 on SIK1 [3], at SIK3 [4] and at SIK2 [5] were over 500 nM, 100 to 500 nM and over 500 nM, respectively.
With `COc1cc(-c2cnc3cc(C4CCN(C)CC4)ccn23)cc(OC)c1C(=O)NCC(F)(F)F` [Cpd 22, 2,6-dimethoxy-4-[7-(1-methyl-4-piperidyl)imidazo[1,2-a]pyridin-3-yl]-N-(2,2,2-trifluoroethyl)benzamide], the IC50 on SIK3 [1] was 10 to 100 nM; against SIK2 [2] it was 100 to 500 nM; at SIK1 [3] it was over 500 nM; at SIK3 [4] it was 10 to 100 nM; on SIK2 [5] it was 100 to 500 nM; against SIK1 [6], over 500 nM.
As for `COc1cc(-n2cnc3cc(C4CCN(C)CC4)ccc32)cc(OC)c1C(=O)NCC(F)(F)F` [Cpd 1, 2,6-dimethoxy-4-[5-(1-methyl-4-piperidyl)benzimidazol-1-yl]-N-(2,2,2-trifluoroethyl)benzamide], the IC50 on SIK1 [3], on SIK3 [4] and on SIK2 [5] was over 500 nM throughout.
As for `CCNC(=O)c1c(OC)cc(-c2cnc3cc(C(C)(C)C#N)ccn23)cc1OC` [Cpd 30, 4-[7-(1-cyano-1-methyl-ethyl)imidazo[1,2-a]pyridin-3-yl]-N-ethyl-2,6-dimethoxy-benzamide], the IC50 on SIK3 [1] was 10 to 100 nM; against SIK2 [2], over 500 nM; at SIK1 [3], over 500 nM; at SIK3 [4], 100 to 500 nM; on SIK2 [5], over 500 nM; against SIK1 [6] it was over 500 nM.
Take `COc1cc(-n2cnc3cc(C(C)C#N)ccc32)cc(OC)c1C(=O)NCC(F)(F)F` (stereo not drawn) [Cpd 15, 4-[5-(1-cyanoethyl)benzimidazol-1-yl]-2,6-dimethoxy-N-(2,2,2-trifluoroethyl)benzamide]: the IC50 on SIK1 [3], on SIK3 [4] and on SIK2 [5] was over 500 nM throughout.
On to `COc1cc(-n2cnc3cc(C(C)(C)C#N)ccc32)cc(OC)c1C(=O)NCC(F)(F)F` [Cpd 10, 4-[5-(1-cyano-1-methyl-ethyl)benzimidazol-1-yl]-2,6-dimethoxy-N-(2,2,2-trifluoroethyl)benzamide], for which the half-maximal inhibitory concentration (IC50) is 100 to 500 nM against SIK3 [1]; over 500 nM on SIK2 [2]; over 500 nM on SIK1 [3]; 100 to 500 nM on SIK3 [4]; over 500 nM on SIK2 [5]; over 500 nM on SIK1 [6].
In the case of `COc1cc(-c2cnc3cc(C(C)(C)C(N)=O)ccn23)cc(OC)c1C(=O)NC1CC1` [Cpd 29, 4-[7-(2-amino-1,1-dimethyl-2-oxo-ethyl)imidazo[1,2-a]pyridin-3-yl]-N-cyclopropyl-2,6-dimethoxy-benzamide], the results for the IC50 at SIK1 [3], at SIK3 [4] and at SIK2 [5] were over 500 nM, 10 to 100 nM and over 500 nM, respectively.
